# Structures can show the parent of a compound that is named as a salt.
# Key:
# [1] = molecular target: T1, human B1R receptor (hB1R) (Homo sapiens, UniProt P46663); test: Functional investigation on the bradykinin 1 receptor (B1R), FLIPR Ca2+ assay, hB1R cells; assay type: cell-based; conditions: test substance 10 μM; CHO K1 cells transfected with human B1R gene; Fluo-4 Ca2+ signal; agonist Lys-Des-Arg9-bradykinin at EC80; % of maximum achievable inhibition; read-out: B1R antagonism, human [10 μM] % inhibition
# T1 construct: expressed in transfected cells; host or cells: CHO K1 cells
# T1 sequence (P46663 1-353): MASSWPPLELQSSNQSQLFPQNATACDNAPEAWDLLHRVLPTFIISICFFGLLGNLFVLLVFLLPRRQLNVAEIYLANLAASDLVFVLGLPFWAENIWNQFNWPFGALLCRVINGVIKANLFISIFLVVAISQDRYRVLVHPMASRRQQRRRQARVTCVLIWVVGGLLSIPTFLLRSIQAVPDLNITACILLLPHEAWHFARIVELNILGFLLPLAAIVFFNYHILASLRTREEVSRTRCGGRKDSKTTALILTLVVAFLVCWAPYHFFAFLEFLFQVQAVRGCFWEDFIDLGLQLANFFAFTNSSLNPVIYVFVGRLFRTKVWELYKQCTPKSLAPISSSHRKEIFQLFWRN
# Protocol: (§1) The agonistic or antagonistic action of substances on the bradykinin 1 receptor (B1R) of the human and rat species can be quantified with ectopically expressing cell lines (CHO K1 cells) and with the aid of a Ca^2+-sensitive dyestuff (Fluo-4) in a fluorescent imaging plate reader (FLIPR). The value in % activation is based on the Ca^2+ signal after addition of Lys-Des-[…]-bradykinin (0.5 nM) or Des-[…]-bradykinin (100 nM). Antagonists lead to a suppression of the Ca^2+inflow after addition of the agonist. % inhibition compared with the maximum achievable inhibition is stated. The agonistic or antagonistic action of substances on the bradykinin 1 receptor (B1R) of the human and rat species can be determined with the following assay. In accordance with this assay, the Ca^2+ inflow through the channel is quantified with the aid of a Ca^2+-sensitive dyestuff (type Fluo-4, Molecular Probes Europe BV, Leiden, Holland) in a fluorescent imaging plate reader (FLIPR, Molecular Devices, Sunnyvale, USA). Chinese hamster ovary cells (CHO K1 cells) transfected stably with the human B1R gene (hB1R cells) or the B1R gene of the rat (rB1R cells) are used. For functional studies, these cells are plated out on black 96-well plates with a clear base (BD Biosciences, Heidelberg, Germany or Greiner, Frickenhausen, Germany) in a density of 20,000-35,000 cells/well. The cells are left overnight at 37° C. and 5% CO2 in culture medium (hB1R cells: Nutrient Mixture Ham's F12, Gibco Invitrogen GmbH, Karlsruhe, Germany or DMEM, Sigma-Aldrich, Taufkirchen, Germany; rB1R cells: D-MEM/F12, Gibco Invitrogen GmbH, Karlsruhe, Germany) with 10 vol. % FBS (foetal bovine serum, Gibco Invitrogen GmbH, Karlsruhe, Germany or PAN Biotech GmbH, Aidenbach, Germany). On the following day, the cells are loaded for 60 min at 37° C. with 2.13 μM Fluo-4 (Molecular Probes Europe BV, Leiden Holland) in HBSS buffer (Hank's buffered saline solution, Gibco Invitrogen GmbH, Karlsruhe, Germany) with 2.5 mM probenecid (Sigma-Aldrich, Taufkirchen, Germany) and 10 mM HEPES (Sigma-Aldrich, Taufkirchen, Germany). The plates are then washed 2× with HBSS buffer, and HBSS buffer which additionally contains 0.1% BSA (bovine serum albumin; Sigma-Aldrich, Taufkirchen, Germany), 5.6 mM glucose and 0.05% gelatine (Merck KGaA, Darmstadt, Germany) is added. After a further incubation of 20 minutes at room temperature, the plates are inserted into the FLIPR for the Ca^2+ measurement. Alternatively, the plates are washed with buffer A (15 mM HEPES, 80 mM NaCl, 5 mM KCl, 1.2 mM CaCl2, 0.7 mM MgSO4, 2 g/l glucose, 2.5 mM probenecid), buffer A is added and the plates are loaded with 2.5 μM Fluo-4 and 0.025% Pluronic F127 (Sigma-Aldrich, Taufkirchen, Germany). Thereafter, the cells are washed 2× with buffer A and incubated for 30 minutes at room temperature with buffer A, which additionally contains 0.05% BSA and 0.05% gelatine, and thereafter inserted into the FLIPR for the Ca^2+ measurement. The Ca^2+-dependent fluorescence is measured here before and after addition of substances (λex=488 nm, λem=540 nm). Quantification is by measurement of the highest fluorescence intensity (FC, fluorescence counts) over time. The FLIPR protocol consists of 2 additions of substance. Test substances (10 μM) are first pipetted on to the cells and the Ca^2+ inflow is compared with the control (hB1R: Lys-Des-[…]-bradykinin>=50 nM; rB1R: Des-[…]-bradykinin 10 μM). This gives the result in % activation based on the Ca^2+ signal after addition of Lys-Des-[…]-bradykinin (>=50 nM) or Des-[…]-bradykinin (10 μM). After incubation for 10-20 minutes, Lys-Des-[…]-bradykinin (hB1R) or Des-[…]-bradykinin (rB1R) at the EC80 concentration is applied and the inflow of Ca^2+ is likewise determined. Antagonists lead to a suppression of the Ca^2+ inflow. The percent inhibition compared to the maximum achievable inhibition is calculated. In order to determine the IC50 value, the substances are added in various concentrations. […]
# [2] = molecular target: T2, B1R receptor of the rat (rB1R) (Rattus norvegicus, UniProt P97583); test: Functional investigation on the bradykinin 1 receptor (B1R), FLIPR Ca2+ assay, rB1R cells; assay type: cell-based; conditions: test substance 10 μM; CHO K1 cells transfected with rat B1R gene; Fluo-4 Ca2+ signal; agonist Des-Arg9-bradykinin at EC80; % of maximum achievable inhibition; read-out: B1R antagonism, rat [10 μM] % inhibition
# T2 construct: expressed in transfected cells; host or cells: CHO K1 cells
# T2 sequence (P97583 1-337): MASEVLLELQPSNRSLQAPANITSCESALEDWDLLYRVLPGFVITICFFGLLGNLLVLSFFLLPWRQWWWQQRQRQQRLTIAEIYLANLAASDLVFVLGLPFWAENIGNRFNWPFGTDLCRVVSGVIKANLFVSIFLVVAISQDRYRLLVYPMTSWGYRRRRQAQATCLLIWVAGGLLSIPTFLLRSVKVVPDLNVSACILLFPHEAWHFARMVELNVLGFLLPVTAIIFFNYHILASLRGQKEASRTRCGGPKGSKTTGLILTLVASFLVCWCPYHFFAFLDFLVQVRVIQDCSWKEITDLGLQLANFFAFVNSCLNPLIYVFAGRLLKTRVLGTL
# Protocol: as §1
SMILES,inhibition at 10 µM [1],inhibition at 10 µM [2]
"O=S(=O)(CCC[C@@H]1CCCN1S(=O)(=O)c1ccc(Cl)cc1Cl)N1CCC(Oc2ccncc2)CC1 [Example 51, (S)-4-(1-(3-(1-(2,4-Dichlorophenylsulfonyl)pyrrolidin-2-yl)propylsulfonyl)piperidin-4-yloxy)pyridine]",74%,93%
"O=S(=O)(CCC[C@@H]1CCCN1S(=O)(=O)c1cccc(Cl)c1Cl)N1CCC(Oc2ccncc2)CC1 [Example 52, (S)-4-(1-(3-(1-(2,3-Dichlorophenylsulfonyl)pyrrolidin-2-yl)propylsulfonyl)piperidin-4-yloxy)pyridine]",71%,87%
"O=S(=O)(CCC[C@@H]1CCCN1S(=O)(=O)c1c(Cl)cc(C(F)(F)F)cc1Cl)N1CCC(Oc2ccncc2)CC1 [Example 72, (S)-4-(1-(3-(1-(2,6-Dichloro-4-(Trifluoromethyl)phenylsulfonyl)pyrrolidin-2-yl)propylsulfonyl)piperidin-4-yloxy)pyridine]",38%,45%
"COc1cc(C)c(S(=O)(=O)N2CCC[C@@H]2CCCS(=O)(=O)N2CCN(C3CCN(C)CC3)CC2)c(C)c1 [Example 34, (R)-1-(3-(1-(4-Methoxy-2,6-dimethylphenylsulfonyl)pyrrolidin-2-yl)propylsulfonyl)-4-(1-methylpiperidin-4-yl)piperazine]",99%,96%
"Cc1cc(S(=O)(=O)N2CCC[C@H]2CCCS(=O)(=O)N2[C@@H]3CC[C@H]2C[C@H](Oc2ccncc2)C3)c(C)cc1Cl [Example 61, (1R,3R,5S)-8-(3-((S)-1-(4-Chloro-2,5-dimethylphenylsulfonyl)pyrrolidin-2-yl)propylsulfonyl)-3-(pyridin-4-yloxy)-8-azabicyclo[3.2.1]octane]",75%,97%
"Cc1cc(S(=O)(=O)N2CCC(CCS(=O)(=O)N3CCN(Cc4cccc(C#N)c4)CC3)C2)c(C)cc1Cl (stereo not shown) [Example 43, 3-((4-(2-(1-(4-Chloro-2,5-dimethylphenylsulfonyl)pyrrolidin-3-yl)ethylsulfonyl)piperazin-1-yl)methyl)benzonitrile hydrochloride]",11%,50%
"COc1cc(C)c(S(=O)(=O)N2CCC[C@H]2CCCS(=O)(=O)N2CCC3(CCC(N4CC(F)(F)C4)CC3)CC2)c(C)c1 [Example 63, 9-(3,3-Difluoroazetidin-1-yl)-3-(3-((S)-1-(4-methoxy-2,6-dimethylphenylsulfonyl)pyrrolidin-2-yl)propylsulfonyl)-3-azaspiro[5.5]undecane]",99%,102%
"O=S(=O)(CCC[C@@H]1CCCN1S(=O)(=O)c1ccc(F)c2ccccc12)N1CCC2(CCN(c3ccncc3)CC2)CC1 [Example 78, 3-(3-((S)-1-(4-Fluoronaphthalen-1-ylsulfonyl)pyrrolidin-2-yl)propylsulfonyl)-9-(pyridin-4-yl)-3,9-diazaspiro[5.5]undecane]",91%,93%
"CC1(C)CCc2cc(S(=O)(=O)N3CCC[C@H]3CCCS(=O)(=O)N3CCC(Oc4ccncc4)CC3)ccc2O1 [Example 69, (S)-4-(1-(3-(1-(2,2-Dimethylchroman-6-ylsulfonyl)pyrrolidin-2-yl)propylsulfonyl)piperidin-4-yloxy)pyridine]",33%,12%
"COc1cc(C)c(S(=O)(=O)N2CCC[C@H]2CCCS(=O)(=O)N2CCC3(CCC(Oc4ccncc4)CC3)CC2)c(C)c1 [Example 66, 3-(3-((S)-1-(4-Methoxy-2,6-dimethylphenylsulfonyl)pyrrolidin-2-yl)propylsulfonyl)-9-(pyridin-4-yloxy)-3-azaspiro[5.5]undecane hydrochloride]",100%,102%
"Cc1cc(S(=O)(=O)N2CCC[C@H]2CCCS(=O)(=O)N2CCN(C3CCN(C)CC3)CC2)c(C)cc1Cl [Example 29, (S)-1-(3-(1-(4-Cloro-2,5-dimethylphenylsulfonyl)pyrrolidin-2-yl)propylsulfonyl)-4-(1-methylpiperidin-4-yl)piperazine]",87%,46%

# Reference: patent US8119805B2, “Substituted disulfonamide compounds” (Gruenenthal GmbH, priority 2008, dated 2012)
